# Patent US20230346743A1, “COMBINATION CANCER THERAPIES” (The Board of Regents of the University of Oklahoma, priority 2018, published 2023)
# Legend:
# Cervical Cancer = assay: Dose reduction index at various fold effects in cervical cancer; type: cell-based, human; design: Palbociclib Dose: unit not given beside the values; conditions: cell line not named
# Source text: Combination Indices (CI's) were derived to determine the level of synergy using the Chow and Talalay method. […] The Dose Reduction Indices (DRIs) were derived to determine the level of reduction for one drug that could be allowed by addition of the second drug at various fold effects (Fas) of the combination treatment (Table 16).
# Mycobacterium bovis BCG = conditions: Table of Brown et al., 2004; cited from earlier work
# [1] = system: MESOV human ovarian cancer cells; assay: Tumor establishment after intraperitoneal injection of MESOV cells (secondary chemoprevention model); type: in vivo; conditions: nu/nu mice, MESOV i.p.
# Protocol: Four-week-old female athymic nude mice (NCr-Foxn1^nu) were obtained from Taconic Biosciences under an approved Institutional Animal Care and Use Committee (IACUC) protocol. Mice were acclimatized for two weeks, fed with a standard diet and ear tagged during the acclimatization period. The timing to tumor development after intraperitoneal injection with various amounts of MESOV cells was determined in a pilot study prior. In the intervention experiment, 6-week-old mice were injected with 20 million MESOV human ovarian cancer cells in their intraperitoneal region. Drug treatment was initiated 4 weeks after the injection of cancer cells. Mice were randomized to four treatment groups before the start of treatment based on their body weight. There was no significant (one-way ANOVA, p >0.999) difference in body weight between groups at the start of treatment. Twelve mice were allocated to each group based on the power analysis performed while designing experiment. […] Controls were gavaged with Kolliphor HS15 (30% in water). […] (10 mg/kg) was dissolved in phosphate buffered saline and injected into the peritoneum of mice every other day. Initially SHetA2 dosing was administered every day for two weeks in SHetA2 alone and drug combination groups, and then switched to every other day for the next three weeks due to the stress caused to the mice by daily gavage. Oral gavaging was performed with sterile disposable plastic feeding tubes 20 ga × 38 mm (Instech Laboratories, Inc., Plymouth Meeting, PA, USA). Three mice in the drug combination group died after two weeks of drug treatment due to gavaging incidents. Body weights were recorded and animal health was monitored weekly. After the end of drug intervention period, all mice were euthanized by CO2 asphyxiation followed by exsanguination, their tumors and other vital organs were collected for further analysis. After measuring the total tumor weight, a portion of the tumors were snap frozen in liquid nitrogen and another portion was formalin fixed. The formalin fixed tissue samples were paraffin embedded, sectioned and stained with hematoxylin and eosins for histology studies. An experienced pathologist reviewed blinded histology slides for kidney and liver toxicity. Presence or absence of tumor at the end of the treatment period was used as the primary outcome measure. […] Two by two logistic regression was used to compare the four treatment groups (Untreated control, SHetA2, […] combination) in the study. Mice in the first 3 groups had complete data, while 3 mice in the combo group died early and had zero tumor weights. […]
# [2] = Toxicity in the MESOV mouse model (body weight, ascites, kidney and liver histology); type: in vivo
# Protocol: Four-week-old female athymic nude mice (NCr-Foxn1^nu) were obtained from Taconic Biosciences under an approved Institutional Animal Care and Use Committee (IACUC) protocol. Mice were acclimatized for two weeks, fed with a standard diet and ear tagged during the acclimatization period. The timing to tumor development after intraperitoneal injection with various amounts of MESOV cells was determined in a pilot study prior. In the intervention experiment, 6-week-old mice were injected with 20 million MESOV human ovarian cancer cells in their intraperitoneal region. Drug treatment was initiated 4 weeks after the injection of cancer cells. Mice were randomized to four treatment groups before the start of treatment based on their body weight. There was no significant (one-way ANOVA, p >0.999) difference in body weight between groups at the start of treatment. Twelve mice were allocated to each group based on the power analysis performed while designing experiment. The sample size was determined to provide over 80% power to detect a 915 mm^3 difference in tumor volume between PRIMA-1^MET treatment alone and the drug combination treatment using a two-sided 0.05 level t-test. SHetA2 was administered by gavage at 60 mg/kg in 30% Kolliphor HS15 (Sigma). Controls were gavaged with Kolliphor HS15 (30% in water). PRIMA-1^MET (10 mg/kg) was dissolved in phosphate buffered saline and injected into the peritoneum of mice every other day. Initially SHetA2 dosing was administered every day for two weeks in SHetA2 alone and drug combination groups, and then switched to every other day for the next three weeks due to the stress caused to the mice by daily gavage. Oral gavaging was performed with sterile disposable plastic feeding tubes 20 ga × 38 mm (Instech Laboratories, Inc., Plymouth Meeting, PA, USA). Three mice in the drug combination group died after two weeks of drug treatment due to gavaging incidents. Body weights were recorded and animal health was monitored weekly. After the end of drug intervention period, all mice were euthanized by CO2 asphyxiation followed by exsanguination, their tumors and other vital organs were collected for further analysis. After measuring the total tumor weight, a portion of the tumors were snap frozen in liquid nitrogen and another portion was formalin fixed. The formalin fixed tissue samples were paraffin embedded, sectioned and stained with hematoxylin and eosins for histology studies. An experienced pathologist reviewed blinded histology slides for kidney and liver toxicity.
# R282W m-p53 = assay: P53 luciferase reporter assay in MESOV cells; type: cell-based, human; conditions: 60 µM PRIMA-1^MET, 24 h
# Protocol: To determine the transcriptional activity of p53, MESOV cells were transfected with PG13-Luc plasmids. Approximately 5,000 transfected cells were seeded on to each well of 96-well plate and incubated overnight. These cells were treated with either control solvent, 5 µM SHetA2 or 60 µM PRIMA-1^MET for 24 h. Luciferase activity of the reporter was measured with the One-glo luciferase reporter assay kit (Promega, Madison, WI, USA) and a Biotek Synergy H1 plate reader (BioteK, Winooski, VT, USA). The MTT assay was performed in parallel cultures and used to normalize the p53 reporter activity to the amount of viable cells.
# [3] = infusion in cancer patients; cited from earlier work
# SKOV3 R273H = assay: MTT cytotoxicity assay; type: cell-based; conditions: Homo sapiens, SK-OV-3; SKOV3 permanently transfected with R273H m-p53, MTT
# Protocol: Cells plated at 2000 cells/well in 96 well microtiter plates were incubated for 36-48 h and treated with a range of doses and combinations of SHetA2 and PRIMA-1 or PRIMA-1^MET, or the same volume of DMSO solvent for 72 h of incubation. The percentage of growth for single drug treatments or fold effect (1 - ratio of treated/untreated growth) was measured using the CellTiter 96 AQueous Non-Radioactive Cell Proliferation Assay (Promega, Madison, WI, USA) and the BioTeK SYNERGY H1 (BioTeK, Winooski, VT, USA). Each experiment was performed in triplicate and repeated 2-3 times.
# The potencies (IC50′s) of SHetA2 or PRIMA-1 were determined using GraphPad Prism 6 software analysis of average MTT Optical Density vs drug dose. […] Single drug treatments at doses surrounding the IC50 values were evaluated parallel. All treatments were performed in triplicate and averages used to draw isobolograms and calculate combination indices (CI) and dose-reduction indices (DRIs) using CompuSyn Software according to the Chou and Talalay method (op cit). All experiments were repeated at least twice for each cell line to confirm results.
# parental SKOV-3 cells = assay: MTT cytotoxicity assay; type: cell-based, human; conditions: parental SKOV-3 p53 null cells
# TP21 gene = assay: qRT-PCR of TP21 in SKOV3 cells; type: cell-based, human; conditions: SKOV3 parental (p53 null) and R273H m-p53 cells; SHetA2 10 µM, PRIMA-1 20 µM, 16 h
# p21 = assay: Western blots of p21 in ovarian cancer cell lines; type: cell-based, human; conditions: A2780, SKOV3, SKOV3 R273H, SKOV3 R248W
# Protocol: Proteins were extracted from cell cultures using M-PER mammalian protein extraction reagent (ThermoFisher, Waltham, MA, USA) and volumes corresponding to 30 µg determined with BCA reagent (ThermoFisher, Waltham, MA, USA) were electrophoresed into a SDS-PAGE gel and transferred to PVDF membranes. Membranes were blocked (5% dry skim milk powder in TBST buffer) for at least 1 h or overnight, washed thrice with TBST and then incubated with primary antibody: p53 DO-1, β-actin, histone H3, GAPDH (Santa Cruz Biotechnology, Dallas, TX, USA) and mortalin, Tom20, V5 tag antibodies, p21, PARP, SLC7A11, caspase 3 (Cell Signaling Technology, Danvers, MA, USA) for at least 1 h or overnight. After three washes, membranes were incubated with anti-mouse HRP conjugated (Santa Cruz Biotechnology, Dallas, TX, USA) or anti-Rabbit HRP conjugated (Cell Signaling Technology, Danvers, MA, USA) for 40 min. Membranes then were washed and developed with ECL reagents (BioRad, Hercules, CA, USA). Bands were imaged and quantified (ChemiDoc imaging system with Image Lab Software/BioRad).
Compound,range (Mycobacterium bovis BCG),also measured
"CC(=O)c1c(C)c2cnc(Nc3ccc(N4CCNCC4)cn3)nc2n(C2CCCC2)c1=O [Palbociclib, reference compound]",,Palbociclib Dose (Cervical Cancer; Fold Effect (Fa) 0.05): 7.16; Palbociclib Dose (Cervical Cancer; Fold Effect (Fa) 0.75): 24.03; Palbociclib Dose (Cervical Cancer; Fold Effect (Fa) 0.90): 80.72; Palbociclib Dose (Cervical Cancer; Fold Effect (Fa) 0.95): 184.00
COc1ccc2c(c1NC(=S)NC(=O)c1ccc([N+](=O)[O-])cc1)C(C)(C)COC2(C)C,20.0-40.0,
CC(C)CCOc1ccc(NC(=S)Nc2ccc(OCCC(C)C)cc2)cc1,0.5-1.0,
CC1(C)CC(C)(C)c2cc(NC(=S)Nc3ccc([N+](=O)[O-])cc3)ccc2O1,20.0-40.0,
CCOC(=O)c1ccc(NC(=S)Nc2ccc3c(c2)C(C)(C)CC(C)(C)O3)cc1,5.0-10.0,
COC(=O)c1ccc(C(=O)Oc2ccc3c(c2)OC(C)(C)C=C3C)cc1,2.0-4.0,
CC1=CC(C)(C)N(C)c2ccc(NC(=S)Nc3ccc([N+](=O)[O-])cc3)cc21,20.0-40.0,
CCOC(=O)c1ccc(NC(=S)Nc2ccc3c(c2)C(C)=CC(C)(C)N3C)cc1,20.0-40.0,
COc1ccc2c(c1NC(=S)Nc1ccc([N+](=O)[O-])cc1)C(C)(C)COC2(C)C,20.0-40.0,
CCOC(=O)c1ccc(NC(=S)Nc2cccc3c2OC(C)(C)CC3(C)C)cc1,20.0-40.0,
CC1(C)CC(C)(C)c2cccc(NC(=S)Nc3ccc([N+](=O)[O-])cc3)c2O1,20.0-40.0,
CCOC(=O)c1ccc(NC(=O)Nc2ccc3c(c2)C(C)(C)CC(C)(C)S3)cc1,20.0-40.0,
CCOC(=O)c1ccc(NC(=O)Nc2cccc3c2OC(C)(C)CC3(C)C)cc1,20.0-40.0,
CCOC(=O)c1ccc(NC(=S)Nc2ccc3c(c2)C(C)(C)CC(C)(C)S3)cc1,20.0-40.0,
CCOC(=O)c1ccc(NC(=O)Nc2ccc3c(c2)C(C)=CC(C)(C)N3C)cc1,20.0-40.0,
"COCC1(CO)C(=O)C2CCN1CC2 (stereo not shown) [PRIMA-1^MET, 2-(hydroxymethyl)-2-(methoxymethyl)-1-azabicyclo [2.2.2]octan-3-one]",,"OR for preventing tumor development (additive logistic regression model) [1]: 4.464; Tumor-free rates ([1]; SHetA2 60 mg/kg gavage, PRIMA-1^MET 10 mg/kg i.p., treatment from day 28 for 38 days): 25%; Kidney or liver toxicity (H & E histology) ([2]; mouse, in vivo, ip): did not cause kidney or liver toxicity; Average body weights compared with mock group ([2]; nu/nu mice, MESOV i.p.): significantly higher than the mock group; Effects on body weight or ascites (abdominal size) ([2]; nu/nu mice, MESOV i.p.): no significant effects on body weight or ascites; p53 transcriptional activity (PG13-Luc reporter) (R282W m-p53): reactivation of R282W m-p53 in MESOV was observed; Clinical safety [3]: relatively safe with fully reversible central nervous system-related side effects"
"O=C1C2CCN(CC2)C1(CO)CO [PRIMA-1, 2,2-Bishydroxymethyl-1-azabicyclo[2.2.2]octan-3-one, reference compound]",,IC50 (SKOV3 R273H): 40 µM; PRIMA-1 sensitivity (parental SKOV-3 cells): resistant; TP21 transcription (qRT-PCR) (TP21 gene): did not induce TP21 transcription; p21 protein (Western blot) (p21): only induced p21 protein expression in A2780 (wt p53)
CCOC(=O)c1ccc(NC(=O)Nc2ccc3c(c2)C(C)(C)CC(C)(C)O3)cc1,20.0-40.0,
CC(=C/C=N/NC(N)=S)/C=C/c1ccc2c(c1)C(C)CC(C)(C)N2C (stereo not shown),10.0-20.0,
